Data published in ChEMBL document CHEMBL1201862, “PubChem BioAssay data set” (2004).
The source made the active and inactive calls.

Tests used:
[1] = biological target: T1, Nuclear receptor subfamily 0 group B member 1 (Homo sapiens, UniProt P51843); experiment: Luminescence-based cell-based high throughput dose response assay for inhibitors of the orphan nuclear receptor subfamily 0, group B, member 1 (DAX1; NR0B1). [Related pubchem assays (depositor defined):AID504766, AID504790]; type: functional
T1 sequence (P51843 whole entry): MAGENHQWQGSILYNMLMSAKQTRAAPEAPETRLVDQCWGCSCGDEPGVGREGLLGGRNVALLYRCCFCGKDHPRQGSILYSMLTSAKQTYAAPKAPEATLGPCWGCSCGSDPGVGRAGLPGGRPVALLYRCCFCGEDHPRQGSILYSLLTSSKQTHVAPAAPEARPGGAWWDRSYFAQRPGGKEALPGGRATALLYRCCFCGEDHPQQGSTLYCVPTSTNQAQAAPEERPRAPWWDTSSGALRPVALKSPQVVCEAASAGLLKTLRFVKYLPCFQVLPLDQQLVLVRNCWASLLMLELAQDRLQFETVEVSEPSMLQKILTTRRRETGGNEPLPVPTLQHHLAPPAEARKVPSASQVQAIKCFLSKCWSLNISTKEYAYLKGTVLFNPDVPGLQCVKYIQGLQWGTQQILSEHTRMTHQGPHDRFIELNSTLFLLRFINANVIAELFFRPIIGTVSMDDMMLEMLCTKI

H4 = experiment: Luminescence Cell-Based Dose Response HTS to Identify Activators of 5'UTR Stem-Loop Driven Prion Protein mRNA Translation in H4 Neuroglioblastoma Cells. [Related pubchem assays: 1829 (Project Summary), 1814 (Primary HTS)]; type: functional; conditions: Homo sapiens
HEK293 [2] = experiment: cells; type: functional, cell-based; conditions: Homo sapiens
cells [3] = type: functional, cell-based
[4] = Luminescence Cell-Based Dose Response HTS to Identify Activators of Luciferase Translation or Activity in H4 […] Cells. [Related pubchem assays: 1829 (Project Summary), 1814 (Primary HTS)]; type: functional
cells [5] = type: functional, cell-based; remark: listed apart in the source
[6] = Luminescence Cell-Based Dose Confirmation HTS to Identify Activators of 5'UTR Stem-Loop Driven Alpha-Synuclein mRNA Translation in H4 Neuroglioblastoma Cells. [Related pubchem assays: 1829 (Project Summary), 1814 (Primary HTS)]; type: functional
[7] = biological target: T2, Alkaline phosphatase, tissue-nonspecific isozyme (Homo sapiens, UniProt P05186); experiment: potency against alkaline phosphatase TNAP – biochemical, luminescent, dose response, SAR follow-up (AID 1056)
T2 sequence (P05186 whole entry): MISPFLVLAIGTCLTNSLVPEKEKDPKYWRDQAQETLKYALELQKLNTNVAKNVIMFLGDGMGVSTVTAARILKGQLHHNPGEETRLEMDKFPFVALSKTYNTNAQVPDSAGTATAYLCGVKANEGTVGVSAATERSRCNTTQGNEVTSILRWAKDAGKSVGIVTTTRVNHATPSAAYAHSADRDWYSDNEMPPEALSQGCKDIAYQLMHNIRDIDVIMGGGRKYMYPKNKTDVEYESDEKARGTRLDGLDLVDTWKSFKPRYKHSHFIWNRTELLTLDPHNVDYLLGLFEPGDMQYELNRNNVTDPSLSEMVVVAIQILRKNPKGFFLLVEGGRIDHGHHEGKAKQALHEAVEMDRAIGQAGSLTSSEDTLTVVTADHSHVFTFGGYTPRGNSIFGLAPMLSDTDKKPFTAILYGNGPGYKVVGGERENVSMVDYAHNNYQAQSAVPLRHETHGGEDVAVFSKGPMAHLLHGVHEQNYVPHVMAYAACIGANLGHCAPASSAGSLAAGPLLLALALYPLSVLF

[8] = biological target: Glyceraldehyde-3-phosphate dehydrogenase (Homo sapiens, UniProt P04406)
HT-1080 = experiment: HT1080 cell viability loss – fluorescence readout (AID 620); type: functional, cell-based; conditions: Homo sapiens
[9] = biological target: Luciferin 4-monooxygenase (Photinus pyralis, UniProt P08659); experiment: Counter Screen for Luciferase-based Assay Positives. [Related pubchem assays: 620, 618, 411 ]
[10] = biological target: DNA dC->dU-editing enzyme APOBEC-3G (Homo sapiens, UniProt Q9HC16); type: functional;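 further: Dose-response counterscreen measuring inhibition of APOBEC3G DNA deaminase activity, run while confirming APOBEC3A inhibitors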
[11] = biological target: T3, Microphthalmia-associated transcription factor (Homo sapiens, UniProt O75030); experiment: reducers of TRPM1 reporter luminescence, concentration series – cell-based, SK-MEL-5, cherry-picked, set 3, MITF inhibitor project, dose response (AID 493073); type: functional;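 further: SK-MEL-5 melanoma cells with luciferase driven by the MITF target TRPM1 promoter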
T3 sequence (O75030 whole entry): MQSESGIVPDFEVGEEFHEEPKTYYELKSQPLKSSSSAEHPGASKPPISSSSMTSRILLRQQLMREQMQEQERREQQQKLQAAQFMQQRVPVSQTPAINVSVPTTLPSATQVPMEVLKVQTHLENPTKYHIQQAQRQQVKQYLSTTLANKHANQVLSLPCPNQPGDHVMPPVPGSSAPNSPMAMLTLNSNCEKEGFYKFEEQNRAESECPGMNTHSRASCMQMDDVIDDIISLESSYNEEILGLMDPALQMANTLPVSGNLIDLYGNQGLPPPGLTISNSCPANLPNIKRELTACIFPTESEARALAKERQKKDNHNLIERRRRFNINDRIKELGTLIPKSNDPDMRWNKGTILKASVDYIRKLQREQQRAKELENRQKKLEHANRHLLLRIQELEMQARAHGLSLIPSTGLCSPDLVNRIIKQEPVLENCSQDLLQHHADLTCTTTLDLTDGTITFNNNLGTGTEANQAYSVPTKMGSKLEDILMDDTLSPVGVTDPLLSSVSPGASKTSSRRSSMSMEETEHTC

[12] = biological target: DNA dC->dU-editing enzyme APOBEC-3A (Homo sapiens, UniProt P31941); experiment: Dose Response confirmation of small molecule APOBEC3A DNA Deaminase Inhibitors via a fluorescence-based single-stranded DNA deaminase assay. [Related pubchem assays (depositor defined):AID493011, AID493024]; type: functional
Jurkat = experiment: SAR Analysis of small molecule inhibitors of T-cell specific antigen receptor-induced NF-kB activation in a Jurkat cell line using a luminescence assay - Set 2. [Related pubchem assays (depositor defined):AID435003, AID435012, AID465]; type: functional, cell-based; conditions: Homo sapiens
HEK293 [13] = experiment: SAR Analysis of small molecule inhibitors of T-cell specific antigen receptor-induced NF-kB activation in a HEK-293T cell line using a luminescence assay - Set 2. [Related pubchem assays (depositor defined):AID435003, AID435012, AID489026]; type: functional, cell-based; conditions: Homo sapiens
HEK293 [14] = experiment: HEK293T cell viability loss, resazurin readout – resazurin fluorescence, cytotoxicity control for NF-kB activator project, SAR follow-up (AID 493251); type: functional, cell-based; conditions: Homo sapiens
Vero = experiment: cells; type: functional; conditions: Chlorocebus sabaeus
[15] = HEK-293T cell viability reduction – luminescence, B-cell screen hits, cytotoxicity control for BCR NF-kB inhibitor project, dose response (AID 489021); type: functional, cell-based;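 further: HEK-293T cells carrying an NF-kB luciferase reporter; cells exposed to compound for about 14 hours before viability readout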
[16] = microbe, parasite or virus in culture; type: functional; conditions: Mycobacterium tuberculosis
[17] = Luminescence-based dose response cell-based high throughput screening assay for cytotoxic compounds using the IEC-6 intestinal epithelial cell line. [Related pubchem assays: 1858 (Summary AID.), 1825 (Counterscreen.), 1907 (Confirmation screen.)]; type: functional
[18] = viability of uninfected HEp-2 cells – cell-based, HTS, cytotoxicity control for RSV inhibitor project, dose response (AID 2410); type: functional; conditions: human respiratory syncytial virus
[19] = biological target: T4, Oxysterols receptor LXR-beta (Homo sapiens, UniProt P55055); type: functional, cell-based;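 further: agonist activity at LXR measured by a cell-based luminescence readout across a dose range, run as a counterscreen for daf-12 agonists; HEK293 cells with Gal4-LXR fusion and GAL4-driven luciferase reporter; potency for activation of Gal4-LXR reporter so compounds are agonists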
T4 sequence (P55055 whole entry): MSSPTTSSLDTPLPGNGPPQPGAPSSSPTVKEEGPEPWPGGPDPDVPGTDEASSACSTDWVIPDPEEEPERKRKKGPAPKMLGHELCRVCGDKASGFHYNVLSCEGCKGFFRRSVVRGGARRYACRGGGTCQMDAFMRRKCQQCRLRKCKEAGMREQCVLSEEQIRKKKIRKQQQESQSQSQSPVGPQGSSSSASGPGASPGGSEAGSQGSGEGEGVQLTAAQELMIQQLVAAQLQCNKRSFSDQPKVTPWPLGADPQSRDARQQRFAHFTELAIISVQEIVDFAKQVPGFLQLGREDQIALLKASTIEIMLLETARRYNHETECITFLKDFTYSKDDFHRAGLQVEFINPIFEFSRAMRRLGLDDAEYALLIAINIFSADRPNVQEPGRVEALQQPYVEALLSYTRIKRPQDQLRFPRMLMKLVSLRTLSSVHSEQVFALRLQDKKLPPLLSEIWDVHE

Glyceraldehyde-3-phosphate dehydrogenase, sequence (P04406 whole entry): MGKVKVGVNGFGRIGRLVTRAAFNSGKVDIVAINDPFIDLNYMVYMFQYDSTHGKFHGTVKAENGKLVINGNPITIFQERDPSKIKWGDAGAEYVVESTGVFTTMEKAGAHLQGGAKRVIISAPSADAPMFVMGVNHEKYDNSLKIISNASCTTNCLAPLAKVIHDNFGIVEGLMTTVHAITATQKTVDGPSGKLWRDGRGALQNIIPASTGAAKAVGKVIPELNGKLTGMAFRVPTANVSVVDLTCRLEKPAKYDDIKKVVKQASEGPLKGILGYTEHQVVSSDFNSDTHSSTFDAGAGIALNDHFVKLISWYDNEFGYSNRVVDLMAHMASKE
DNA dC->dU-editing enzyme APOBEC-3A, sequence (P31941 whole entry): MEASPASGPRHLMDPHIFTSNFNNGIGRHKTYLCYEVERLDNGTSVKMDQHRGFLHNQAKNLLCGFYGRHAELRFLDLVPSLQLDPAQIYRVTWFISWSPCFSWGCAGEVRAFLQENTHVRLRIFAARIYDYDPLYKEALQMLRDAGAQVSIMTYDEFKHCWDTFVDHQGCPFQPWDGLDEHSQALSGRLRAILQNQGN
DNA dC->dU-editing enzyme APOBEC-3G, sequence (Q9HC16 whole entry): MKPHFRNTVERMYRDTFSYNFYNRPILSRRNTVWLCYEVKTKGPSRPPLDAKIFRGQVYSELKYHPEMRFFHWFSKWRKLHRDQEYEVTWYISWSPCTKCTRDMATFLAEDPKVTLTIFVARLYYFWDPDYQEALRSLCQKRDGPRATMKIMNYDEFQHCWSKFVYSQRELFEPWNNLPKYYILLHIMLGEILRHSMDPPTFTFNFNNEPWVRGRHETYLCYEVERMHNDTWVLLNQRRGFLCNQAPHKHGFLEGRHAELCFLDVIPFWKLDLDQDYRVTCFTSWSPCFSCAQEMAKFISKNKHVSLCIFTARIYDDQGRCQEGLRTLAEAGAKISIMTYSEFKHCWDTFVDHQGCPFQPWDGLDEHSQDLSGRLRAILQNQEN
Luciferin 4-monooxygenase, sequence (P08659 whole entry): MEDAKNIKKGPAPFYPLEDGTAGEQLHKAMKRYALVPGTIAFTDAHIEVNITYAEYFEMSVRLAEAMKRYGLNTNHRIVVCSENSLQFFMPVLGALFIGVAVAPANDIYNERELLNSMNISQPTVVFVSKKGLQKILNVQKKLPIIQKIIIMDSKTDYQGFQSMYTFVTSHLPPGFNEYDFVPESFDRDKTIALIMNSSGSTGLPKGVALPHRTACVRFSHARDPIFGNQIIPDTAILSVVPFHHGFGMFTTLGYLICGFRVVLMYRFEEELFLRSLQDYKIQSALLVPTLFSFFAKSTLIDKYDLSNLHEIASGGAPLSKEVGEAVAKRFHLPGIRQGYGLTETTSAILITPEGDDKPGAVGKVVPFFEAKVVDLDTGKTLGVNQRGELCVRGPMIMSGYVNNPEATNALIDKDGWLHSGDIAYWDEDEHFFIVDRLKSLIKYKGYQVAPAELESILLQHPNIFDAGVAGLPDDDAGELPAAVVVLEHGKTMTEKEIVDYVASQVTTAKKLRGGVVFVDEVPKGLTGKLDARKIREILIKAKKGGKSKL

O=C(Nc1ncccc1O)c1ccc(S(=O)(=O)Nc2ccccc2)cc1
IC50 [1]: > 67.6 µM (inactive)
EC50 (H4): 22.9 µM (active)
IC50 (HEK293 [2]): > 0.00338 µM (active)
EC50 (cells [3]): > 350 µM (not active)
EC50 [4]: 19.9 µM (active)
EC50 (cells [5]): 23.3 µM (active)
EC50 [6]: 12.2 µM (active)

COc1ccc(OC)c(S(=O)(=O)Nc2ccc3ncccc3c2)c1
IC50 [7]: > 100 µM (inactive)
IC50 [8]: > 100 µM (not active)

CC1=NC(=O)C(N=Nc2cccc(C(=O)O)c2)N1c1ccccc1 (stereo not drawn)
EC50 (HT-1080): > 50 µM (not active)
EC50 [9]: 0.67 µM (active)
IC50 [10]: 6.48 µM (active)
AC50 [11]: 8.62 µM (active)
IC50 [12]: 4.74 µM (active)

Cc1cc(NC(=O)c2ccc([N+](=O)[O-])o2)cc(-c2nc3ccccc3o2)c1O
IC50 (Jurkat): 3.42 µM (active)
IC50 (HEK293 [13]): > 80 µM (inactive)
IC50 (HEK293 [14]): > 80 µM (inactive)

c1cc(Cn2ccnc2)ccn1
IC50 [7]: > 100 µM (inactive)
IC50 [8]: > 100 µM (not active)

Cc1cc2nc(CSc3ccc(Cl)cc3)cc(O)n2n1
IC50 [1]: > 67.6 µM (inactive)
IC50 (HEK293 [2]): > 67.6 µM (inactive)

Cc1[nH]c2ccccc2c1/C=N/Nc1nc(Nc2ccccc2)nc(N2CCOCC2)n1
CC50 (Vero): 3.33 µM (active)
IC50 [15]: 66.7 µM (inactive)
CC50 [16]: 24.1 µM (active)
IC50 [17]: 0.482 µM (active)
CC50 [18]: 22.6 µM (active)

Oc1[nH]c2ccccc2c1/C=N/c1ccccc1
IC50 [1]: > 67.5 µM (inactive)
IC50 (HEK293 [2]): > 67.5 µM (inactive)
EC50 [19]: > 67.5 µM (inactive)

O=C(CSc1nnc(NC(=O)c2ccccc2C(=O)O)s1)Nc1ccccc1Cl
IC50 [10]: 9.42 µM (active)
IC50 [12]: 14 µM (active)

COc1ccc(OC)c(S(=O)(=O)Nc2cccc3ccccc23)c1
IC50 [7]: > 100 µM (inactive)
IC50 [8]: > 100 µM (not active)
